Test results from patent publication US9073830B2 (Hyundai Pharm Co., Ltd., priority 2011, dated 2015).

Assays:
[1] = target: T1, mouse 11β-HSD1 (Mus musculus, UniProt P50172); test: Enzyme activity analysis on mouse 11β-HSD1 (HTRF cortisol, liver microsomes); format: biochemical; conditions: second value of cell
T1 construct: 100 ug/ml human/mouse liver microsomes; from tissue; host or cells: mouse liver microsomes
Procedure: (§1) After culturing at 37° C. for 2 hours, 5 μl of cryptate-labeled anti-cortisol antibody and 5 μl of d2-labeled cortisol were added thereto. After further culturing at room temperature for 2 hours, a homogeneous time-resolved fluorescence (HTRF, Cisbio) signal was measured. From each analysis, based on a standard curve calculated using cortisols of several known concentrations, an amount of produced cortisol was tested.
(§2) While an amount of cortisol, produced without the compound, was used as a control, an inhibition percentage by the test compound, at each concentration, was calculated. By using an inhibition curve calculated by coordinates of inhibition percentage to test compound concentration, an IC50 value of the compound on 11β-HSD1 was obtained.

[2] = target: T2, human 11β-HSD1 (Homo sapiens, UniProt P28845); test: Enzyme activity analysis on human 11β-HSD1 (HTRF cortisol, liver microsomes); format: biochemical; conditions: first value of cell
T2 construct: 100 ug/ml human/mouse liver microsomes; from tissue; host or cells: human liver microsomes
T2 sequence (P28845 whole entry): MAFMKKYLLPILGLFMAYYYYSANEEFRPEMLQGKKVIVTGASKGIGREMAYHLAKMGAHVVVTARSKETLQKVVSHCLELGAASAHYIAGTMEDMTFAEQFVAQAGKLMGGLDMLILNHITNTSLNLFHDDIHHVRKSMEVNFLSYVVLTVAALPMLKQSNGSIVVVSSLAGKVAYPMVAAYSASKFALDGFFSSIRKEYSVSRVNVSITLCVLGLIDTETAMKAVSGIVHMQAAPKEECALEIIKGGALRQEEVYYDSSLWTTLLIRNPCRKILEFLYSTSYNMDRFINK
Procedure: as §1, §2

T1 sequence (P50172 whole entry): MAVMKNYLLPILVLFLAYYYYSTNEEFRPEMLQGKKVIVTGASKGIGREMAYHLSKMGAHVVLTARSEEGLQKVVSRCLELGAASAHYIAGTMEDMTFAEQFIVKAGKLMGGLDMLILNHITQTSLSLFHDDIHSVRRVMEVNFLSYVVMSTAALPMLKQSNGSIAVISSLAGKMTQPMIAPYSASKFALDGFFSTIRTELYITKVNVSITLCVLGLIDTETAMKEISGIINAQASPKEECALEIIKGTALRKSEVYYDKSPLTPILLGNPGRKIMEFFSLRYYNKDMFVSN

Compound	IC50 [1] [µM]	IC50 [2] [µM]
CC(C)(NS(=O)(=O)c1ccc(C(F)(F)F)cc1)C(=O)NC1C2CC3CC(C2)CC1C3 (stereo not drawn) [compound 37, N-(adamantane-2-yl)-2-methyl-2-(4-trifluoromethylphenylsulfonamido)propanamide]	> 2.5	> 2.5
CC(=O)c1ccc(S(=O)(=O)NC(C)(C)C(=O)NC2C3CC4CC(C3)CC2C4)cc1 (stereo not drawn) [compound 38, N-(adamantane-2-yl)-2-methyl-2-(4-acetylphenylsulfonamido)propanamide]	0.847	0.829
Cc1ccc([N+](=O)[O-])cc1S(=O)(=O)NC(C)(C)C(=O)NC1C2CC3CC(C2)CC1C3 (stereo not drawn) [compound 40, N-(adamantane-2-yl)-2-methyl-2-(5-nitro-2-methylphenylsulfonamido)propanamide]	1.85	0.098
CC(C)(NS(=O)(=O)c1ccc(-c2ccccc2)cc1)C(=O)NC1C2CC3CC(C2)CC1C3 (stereo not drawn) [compound 42, N-(adamantane-2-yl)-2-methyl-2-([1,1-biphenyl]-4-ylsulfonamido)propanamide]	1.7	1.8
COc1ccc(S(=O)(=O)NC(C)(C)C(=O)NC2C3CC4CC(C3)CC2C4)c(OC)c1 (stereo not drawn) [compound 47, N-(adamantane-2-yl)-2-methyl-2-(2,4-dimethoxyphenylsulfonamido)propanamide]	1.92	0.082
COc1ccc(OC)c(S(=O)(=O)NC(C)(C)C(=O)NC2C3CC4CC(C3)CC2C4)c1 (stereo not drawn) [compound 48, N-(adamantane-2-yl)-2-methyl-2-(2,5-dimethoxyphenylsulfonamido)propanamide]	1.83	0.02
CC(C)(NS(=O)(=O)c1cc(C(F)(F)F)cc(C(F)(F)F)c1)C(=O)NC1C2CC3CC(C2)CC1C3 (stereo not drawn) [compound 49, N-(adamantane-2-yl)-2-methyl-2-(3,5-ditrifluoromethylphenylsulfonamido)propanamide]	> 2.5	1.35
CC(C)(NS(=O)(=O)c1ccc(Cl)c(Cl)c1Cl)C(=O)NC1C2CC3CC(C2)CC1C3 (stereo not drawn) [compound 51, N-(adamantane-2-yl)-2-methyl-2-(2,3,4-trichlorophenylsulfonamido)propanamide]	1.3	0.183
CC(C)(NS(=O)(=O)CCc1cccc2ccccc12)C(=O)NC1C2CC3CC(C2)CC1C3 (stereo not drawn) [compound 52, N-(adamantane-2-yl)-2-methyl-2-(2-(naphthalene-1-yl)ethylsulfonamido)propanamide]	2.14	1.17
CC(C)(NS(=O)(=O)c1ccc(F)c(Cl)c1)C(=O)NC1C2CC3CC(C2)CC1C3 (stereo not drawn) [compound 54, N-(adamantane-2-yl)-2-methyl-2-(4-fluoro-3-chlorophenylsulfonamido)propanamide]	0.904	0.223
CC(C)(NS(=O)(=O)c1ccccc1C(N)=O)C(=O)NC1C2CC3CC(C2)CC1C3 (stereo not drawn) [compound 56]	> 2.5	0.532
CC(C)c1ccc(S(=O)(=O)NC(C)(C)C(=O)NC2C3CC4CC(C3)CC2C4)cc1 (stereo not drawn) [compound 57, N-(adamantane-2-yl)-2-methyl-2-(4-isopropylphenylsulfonamido)propanamide]	1.32	1.04
Cc1cc(C)cc(S(=O)(=O)NC(C)(C)C(=O)NC2C3CC4CC(C3)CC2C4)c1 (stereo not drawn) [compound 59, N-(adamantane-2-yl)-2-methyl-2-(3,5-dimethylphenylsulfonamido)propanamide]	1.21	0.331
CC(C)(NS(=O)(=O)c1ccc(Cl)c([N+](=O)[O-])c1)C(=O)NC1C2CC3CC(C2)CC1C3 (stereo not drawn) [compound 61, N-(adamantane-2-yl)-2-methyl-2-(4-chloro-3-nitrophenylsulfonamido)propanamide]	> 2.5	> 2.5
CC(C)(NS(=O)(=O)c1cccc(Br)c1)C(=O)NC1C2CC3CC(C2)CC1C3 (stereo not drawn) [compound 64, N-(adamantane-2-yl)-2-methyl-2-(3-bromophenylsulfonamido)propanamide]	1.02	0.433
CC(C)(NS(=O)(=O)c1ccc(Br)cc1)C(=O)NC1C2CC3CC(C2)CC1C3 (stereo not drawn) [compound 65, N-(adamantane-2-yl)-2-methyl-2-(4-bromophenylsulfonamido)propanamide]	1.65	0.996
CC(C)(NS(=O)(=O)c1cccc([N+](=O)[O-])c1)C(=O)NC1C2CC3CC(C2)CC1C3 (stereo not drawn) [compound 66, N-(adamantane-2-yl)-2-methyl-2-(3-nitrophenylsulfonamido)propanamide]	0.914	0.511
CCCc1ccc(S(=O)(=O)NC(C)(C)C(=O)NC2C3CC4CC(C3)CC2C4)cc1 (stereo not drawn) [compound 67, N-(adamantane-2-yl)-2-methyl-2-(4-propylphenylsulfonamido)propanamide]	1.26	1.29
COc1ccc(S(=O)(=O)NC(C)(C)C(=O)NC2C3CC4CC(C3)CC2C4)cc1[N+](=O)[O-] (stereo not drawn) [compound 68, N-(adamantane-2-yl)-2-methyl-2-(4-methoxy-3-nitrophenylsulfonamido)propanamide]	1.12	1.2

Stronger by IC50 [1], values ahead:

IC50 [1] [µM]	IC50 [2] [µM]	Compound
0.561	0.043	Cc1cc(F)ccc1S(=O)(=O)NC(C)(C)C(=O)NC1C2CC3CC(C2)CC1C3 (stereo not drawn) [compound 39, N-(adamantane-2-yl)-2-methyl-2-(4-fluoro-2-methylphenylsulfonamido)propanamide]
0.156	0.041	CC(C)(NS(=O)(=O)c1c(F)cccc1F)C(=O)NC1C2CC3CC(C2)CC1C3 (stereo not drawn) [compound 41, N-(adamantane-2-yl)-2-methyl-2-(2,6-difluorophenylsulfonamido)propanamide]
0.167	0.481	CC(C)(NS(=O)(=O)c1ccc(C(=O)NC2C3CC4CC(C3)CC2C4)cc1Cl)C(=O)NC1C2CC3CC(C2)CC1C3 (stereo not drawn) [compound 44]
0.02	0.009	CC(C)(NS(=O)(=O)c1c(Cl)cccc1Cl)C(=O)NC1C2CC3CC(C2)CC1C3 (stereo not drawn) [compound 45, N-(adamantane-2-yl)-2-methyl-2-(2,6-dichlorophenylsulfonamido)propanamide]
0.621	0.105	CC(C)(NS(=O)(=O)c1ccc(Cl)cc1Cl)C(=O)NC1C2CC3CC(C2)CC1C3 (stereo not drawn) [compound 46, N-(adamantane-2-yl)-2-methyl-2-(2,4-dichlorophenylsulfonamido)propanamide]
0.292	0.105	CC(C)(NS(=O)(=O)c1cccnc1Cl)C(=O)NC1C2CC3CC(C2)CC1C3 (stereo not drawn) [compound 50, N-(adamantane-2-yl)-2-methyl-2-(2-chloropyridine-3-sulfonamido)propanamide]
0.673	0.21	CCc1ccc(S(=O)(=O)NC(C)(C)C(=O)NC2C3CC4CC(C3)CC2C4)cc1 (stereo not drawn) [compound 53, N-(adamantane-2-yl)-2-methyl-2-(4-ethylphenylsulfonamido)propanamide]
0.186	0.039	CC(C)(NS(=O)(=O)c1ccc(F)cc1Cl)C(=O)NC1C2CC3CC(C2)CC1C3 (stereo not drawn) [compound 55, N-(adamantane-2-yl)-2-methyl-2-(4-fluoro-2-chlorophenylsulfonamido)propanamide]
0.621	0.199	CC(C)(NS(=O)(=O)c1ccc(F)cc1F)C(=O)NC1C2CC3CC(C2)CC1C3 (stereo not drawn) [compound 58, N-(adamantane-2-yl)-2-methyl-2-(2,4-difluorophenylsulfonamido)propanamide]
0.644	0.135	COc1cc([N+](=O)[O-])ccc1S(=O)(=O)NC(C)(C)C(=O)NC1C2CC3CC(C2)CC1C3 (stereo not drawn) [compound 60, N-(adamantane-2-yl)-2-methyl-2-(4-nitro-2-methoxyphenylsulfonamido)propanamide]
0.686	0.215	Cc1ccc(S(=O)(=O)NC(C)(C)C(=O)NC2C3CC4CC(C3)CC2C4)cc1Cl (stereo not drawn) [compound 62, N-(adamantane-2-yl)-2-methyl-2-(4-methyl-3-chlorophenylsulfonamido)propanamide]
0.283	0.039	CC(C)(NS(=O)(=O)Cc1ccccc1)C(=O)NC1C2CC3CC(C2)CC1C3 (stereo not drawn) [compound 63, N-(adamantane-2-yl)-2-methyl-2-(phenylmethylsulfonamido)propanamide]
0.258	0.118	CC(C)(NS(=O)(=O)c1ccccc1F)C(=O)NC1C2CC3CC1CC(O)(C3)C2 (stereo not drawn) [compound 69, N-(5-hydroxyadamantane-2-yl)-2-methyl-2-(2-fluorophenylsulfonamido)propanamide]
0.378	0.093	CC(C)(NS(=O)(=O)c1ccccc1)C(=O)NC1C2CC3CC1CC(O)(C3)C2 (stereo not drawn) [compound 70]
0.631	0.196	COc1ccc(S(=O)(=O)NC(C)(C)C(=O)NC2C3CC4CC2CC(O)(C4)C3)cc1 (stereo not drawn) [compound 71, N-(5-hydroxyadamantane-2-yl)-2-methyl-2-(4-methoxyphenylsulfonamido)propanamide]
0.138	0.111	CC(C)(NS(=O)(=O)c1ccccc1C(F)(F)F)C(=O)NC1C2CC3CC1CC(O)(C3)C2 (stereo not drawn) [compound 72, N-(5-hydroxyadamantane-2-yl)-2-methyl-2-(2-trifluoromethylphenylsulfonamido)propan amide]
0.042	0.017	CC(C)(NS(=O)(=O)c1cccc(Cl)c1Cl)C(=O)NC1C2CC3CC1CC(O)(C3)C2 (stereo not drawn) [compound 73, N-(5-hydroxyadamantane-2-yl)-2-methyl-2-(2,3-dichlorophenylsulfonamido)propanamide]
